According to patent US9409908B2 (priority 2012, dated 2016):
Structures can show the parent of a compound that is named as a salt.

Legend:
[1] = biological target: purified human Factor XIa (Homo sapiens (Human), UniProt P03951); assay: biochemical; type: biochemical; details: read-out: Factor XIa Ki
[2] = biological target: purified human plasma kallikrein (Homo sapiens (Human), UniProt P03952); assay: biochemical; type: biochemical; details: read-out: Plasma Kallikrein Ki
Chain of purified human plasma kallikrein (P03952 whole entry, looked up): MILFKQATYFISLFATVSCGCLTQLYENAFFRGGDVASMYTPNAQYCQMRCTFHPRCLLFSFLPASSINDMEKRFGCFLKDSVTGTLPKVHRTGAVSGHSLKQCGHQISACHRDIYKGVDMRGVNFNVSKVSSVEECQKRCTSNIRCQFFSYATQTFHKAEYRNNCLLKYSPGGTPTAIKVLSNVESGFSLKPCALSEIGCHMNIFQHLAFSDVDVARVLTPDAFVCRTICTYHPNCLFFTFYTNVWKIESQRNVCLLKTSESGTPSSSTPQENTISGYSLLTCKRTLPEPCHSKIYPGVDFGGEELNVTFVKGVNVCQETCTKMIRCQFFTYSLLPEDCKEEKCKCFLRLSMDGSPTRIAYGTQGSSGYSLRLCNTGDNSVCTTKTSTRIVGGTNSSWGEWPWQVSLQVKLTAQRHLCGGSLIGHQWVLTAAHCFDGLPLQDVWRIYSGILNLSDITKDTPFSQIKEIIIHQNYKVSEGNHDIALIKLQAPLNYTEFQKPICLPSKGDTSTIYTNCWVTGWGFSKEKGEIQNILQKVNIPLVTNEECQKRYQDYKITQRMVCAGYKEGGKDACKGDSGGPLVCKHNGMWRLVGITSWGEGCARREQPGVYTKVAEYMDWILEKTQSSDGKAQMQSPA
Chain of purified human plasma kallikrein (P03952 whole entry partner, looked up): as the sequence (P03952 whole entry, looked up) above

Chain of purified human Factor XIa (P03951 whole entry, looked up): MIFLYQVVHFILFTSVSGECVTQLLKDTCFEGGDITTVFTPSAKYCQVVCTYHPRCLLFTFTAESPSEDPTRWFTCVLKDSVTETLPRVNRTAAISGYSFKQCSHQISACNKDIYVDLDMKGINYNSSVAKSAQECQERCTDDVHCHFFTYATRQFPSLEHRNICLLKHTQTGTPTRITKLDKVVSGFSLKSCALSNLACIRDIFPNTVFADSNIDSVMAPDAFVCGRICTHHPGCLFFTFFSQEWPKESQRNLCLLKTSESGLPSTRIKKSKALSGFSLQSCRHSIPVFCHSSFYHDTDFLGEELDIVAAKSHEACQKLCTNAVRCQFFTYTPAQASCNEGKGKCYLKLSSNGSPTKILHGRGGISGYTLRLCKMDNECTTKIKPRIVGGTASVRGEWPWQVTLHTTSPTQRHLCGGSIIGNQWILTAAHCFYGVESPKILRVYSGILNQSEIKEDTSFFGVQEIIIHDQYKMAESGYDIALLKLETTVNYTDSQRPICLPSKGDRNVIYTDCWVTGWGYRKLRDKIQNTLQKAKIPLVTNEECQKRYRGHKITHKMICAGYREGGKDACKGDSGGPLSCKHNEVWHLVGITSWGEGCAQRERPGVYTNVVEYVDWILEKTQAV
Chain of purified human Factor XIa (P03951 whole entry partner, looked up): as the sequence (P03951 whole entry, looked up) above

## COC(=O)Nc1ccc2c(c1)NC(=O)[C@H](C)CCC[C@H](N1CCC(c3c(C(F)(F)F)ccc(Cl)c3F)=CC1=O)c1cc-2ccn1 [Example 25, Methyl N-[(10R,14S)-14-{4-[3-chloro-2-fluoro-6-(trifluoromethyl)phenyl]-6-oxo-1,2,3,6-tetrahydropyridin-1-yl}-10-methyl-9-oxo-8,16-diazatricyclo[13.3.1.0^2,7]nonadeca-1(19),2,4,6,15,17-hexaen-5-yl]carbamate, TFA salt]
[1]
  Ki: 0.1 nM
[2]
  Ki: 12 nM

## COC(=O)Nc1ccc2c(c1)NC(=O)[C@H](C)CCC[C@H](N1CCC(c3c(C#N)ccc(Cl)c3F)=CC1=O)c1cc-2cc(OC)n1 [Example 26, Methyl N-[(10R,14S)-14-[4-(3-chloro-6-cyano-2-fluorophenyl)-6-oxo-1,2,3,6-tetrahydropyridin-1-yl]-17-methoxy-10-methyl-9-oxo-8,16-diazatricyclo[13.3.1.0^2,7]nonadeca-1(18),2,4,6,15(19),16-hexaen-5-yl]carbamate]
[1]
  Ki: 0.09 nM
[2]
  Ki: 1 nM

## C[C@@H]1CCC[C@H](N2CCC(c3c(Br)ccc(Cl)c3F)=CC2=O)c2cc(ccn2)-c2ccc(C(=O)O)cc2NC1=O [Example 28, (14S)-14-[4-(6-Bromo-3-chloro-2-fluorophenyl)-6-oxo-1,2,3,6-tetrahydropyridin-1-yl]-10-methyl-9-oxo-8,16-diazatricyclo[13.3.1.0^2,7]nonadeca-1(19),2(7),3,5,15,17-hexaene-5-carboxylic acid, TFA salt]
[1]
  Ki: > 443 nM
[2]
  Ki: 196 nM

## C[C@@H]1CCC[C@H](N2CCC(c3c(Br)ccc(Cl)c3F)=CC2=O)c2cc(ccn2)-c2ccc(C(N)=O)cc2NC1=O [Example 29, (14S)-14-[4-(6-Bromo-3-chloro-2-fluorophenyl)-6-oxo-1,2,3,6-tetrahydropyridin-1-yl]-10-methyl-9-oxo-8,16-diazatricyclo[13.3.1.0^2,7]nonadeca-1(19),2(7),3,5,15,17-hexaene-5-carboxamide, TFA salt]
[1]
  Ki: 2.88 nM
[2]
  Ki: 3 nM

## COC(=O)Nc1ccc2c(c1)NC(=O)[C@H](C)CCC[C@H](N1CCC(c3c(C#N)ccc(Cl)c3F)=CC1=O)c1cc-2cc(=O)[nH]1 [Example 30, Methyl N-[(10R,14S)-14-[4-(3-chloro-6-cyano-2-fluorophenyl)-6-oxo-1,2,3,6-tetrahydropyridin-1-yl]-10-methyl-9,17-dioxo-8,16-diazatricyclo[13.3.1.0^2,7]nonadeca-1(18),2,4,6,15(19)-pentaen-5-yl]carbamate, TFA salt]
[1]
  Ki: 0.21 nM
[2]
  Ki: 3 nM

## COC(=O)Nc1ccc2c(c1)NC(=O)[C@H](C)CCC[C@H](N1CCC(c3c(OC(F)F)ccc(Cl)c3F)=CC1=O)c1ccnc-2c1 [Example 31, Methyl N-[(10R,14S)-14-{4-[3-chloro-6-(difluoromethoxy)-2-fluorophenyl]-6-oxo-1,2,3,6-tetrahydropyridin-1-yl}-10-methyl-9-oxo-8,18-diazatricyclo[13.3.1.0^2,7]nonadeca-1(19),2,4,6,15,17-hexaen-5-yl]carbamate, TFA salt]
[1]
  Ki: 0.04 nM
[2]
  Ki: 3 nM

## COC(=O)Nc1ccc2c(c1)NC(=O)[C@H](C)CCC[C@H](N1CCC(c3c(OC(F)F)ccc(Cl)c3F)=CC1=O)c1cc-2ccn1 [Example 32, Methyl N-[(10R,14S)-14-{4-[3-chloro-6-(difluoromethoxy)-2-fluorophenyl]-6-oxo-1,2,3,6-tetrahydropyridin-1-yl}-10-methyl-9-oxo-8,16-diazatricyclo[13.3.1.0^2,7]nonadeca-1(19),2,4,6,15,17-hexaen-5-yl]carbamate, TFA salt]
[1]
  Ki: 0.06 nM
[2]
  Ki: 6 nM

## C[C@@H]1CCC[C@H](N2CCC(c3c(C#N)ccc(Cl)c3F)=CC2=O)c2cc(ccn2)-c2ccc(C(N)=O)cc2NC1=O [Example 33, (10R,14S)-14-[4-(3-Chloro-6-cyano-2-fluorophenyl)-6-oxo-1,2,3,6-tetrahydropyridin-1-yl]-10-methyl-9-oxo-8,16-diazatricyclo[13.3.1.0^2,7]nonadeca-1(19),2,4,6,15,17-hexaene-5-carboxamide, TFA salt]
[1]
  Ki: 2.02 nM
[2]
  Ki: 3 nM

## COC(=O)Nc1ccc2c(c1)NC(=O)[C@H](C)CCC[C@H](N1CCC(c3cc(Cl)ccc3C(F)(F)F)=CC1=O)c1cc-2ccn1 [Example 36, Methyl N-[(10R,14S)-14-{4-[5-chloro-2-(trifluoromethyl)phenyl]-6-oxo-1,2,3,6-tetrahydropyridin-1-yl}-10-methyl-9-oxo-8,16-diazatricyclo[13.3.1.0^2,7]nonadeca-1(19),2,4,6,15,17-hexaen-5-yl]carbamate, TFA salt]
[1]
  Ki: 0.09 nM
[2]
  Ki: 8 nM

## Cc1nnc(Nc2ccc3c(c2)NC(=O)[C@H](C)CCC[C@H](N2CCC(c4c(F)ccc(Cl)c4F)=CC2=O)c2ccnc-3c2)o1 [Example 37, (10R,14S)-14-[4-(3-Chloro-2,6-difluorophenyl)-6-oxo-1,2,3,6-tetrahydropyridin-1-yl]-10-methyl-5-[(5-methyl-1,3,4-oxadiazol-2-yl)amino]-8,18-diazatricyclo[13.3.1.0^2,7]nonadeca-1(19),2(7),3,5,15,17-hexaen-9-one, TFA salt]
[1]
  Ki: 0.87 nM
[2]
  Ki: 1 nM

## CC1CCC[C@H](N2CCC(c3c(Br)ccc(Cl)c3F)=CC2=O)c2cc(ccn2)-c2ccc(-c3nnc[nH]3)cc2NC1=O (stereo partly drawn) [Example 38, (14S)-14-[4-(6-Bromo-3-chloro-2-fluorophenyl)-6-oxo-1,2,3,6-tetrahydropyridin-1-yl]-10-methyl-5-(4H-1,2,4-triazol-3-yl)-8,16-diazatricyclo[13.3.1.0^2,7]nonadeca-1(19),2(7),3,5,15,17-hexaen-9-one, TFA salt]
[1]
  Ki: 2.77 nM
[2]
  Ki: 6 nM

## C[C@@H]1CCC[C@H](N2CCC(c3c(F)ccc(Cl)c3F)=CC2=O)c2cc(ccn2)-c2ccc(Nc3nnc(C4CC4)o3)cc2NC1=O [Example 39, (10R,14S)-14-[4-(3-Chloro-2,6-difluorophenyl)-6-oxo-1,2,3,6-tetrahydropyridin-1-yl]-5-[(5-cyclopropyl-1,3,4-oxadiazol-2-yl)amino]-10-methyl-8,16-diazatricyclo[13.3.1.0^2,7]nonadeca-1(19),2(7),3,5,15,17-hexaen-9-one, TFA salt]
[1]
  Ki: 0.67 nM
[2]
  Ki: 2 nM

## COCc1nnc(Nc2ccc3c(c2)NC(=O)[C@H](C)CCC[C@H](N2CCC(c4c(F)ccc(Cl)c4F)=CC2=O)c2cc-3ccn2)o1 [Example 41, (10R,14S)-14-[4-(3-Chloro-2,6-difluorophenyl)-6-oxo-1,2,3,6-tetrahydropyridin-1-yl]-5-{[5-(methoxymethyl)-1,3,4-oxadiazol-2-yl]amino}-10-methyl-8,16-diazatricyclo[13.3.1.0^2,7]nonadeca-1(19),2,4,6,15,17-hexaen-9-one, TFA salt]
[1]
  Ki: 0.69 nM
[2]
  Ki: 2 nM

## C[C@@H]1CCC[C@H](N2CCC(c3c(Br)ccc(Cl)c3F)=CC2=O)c2cc(ccn2)-c2ccccc2NC1=O [Example 45, (10R,14S)-14-[4-(6-Bromo-3-chloro-2-fluorophenyl)-6-oxo-1,2,3,6-tetrahydropyridin-1-yl]-10-methyl-8,16-diazatricyclo[13.3.1.0^2,7]nonadeca-1(19),2,4,6,15,17-hexaen-9-one, TFA salt]
[1]
  Ki: 2.08 nM
[2]
  Ki: 7 nM
